Legend:
[1] = target: T1, Gal4-RORγ-LBD (Homo sapiens, UniProt P51449); experiment: Gal4-RORγ Luciferase Reporter Assay in HEK-293T Cells; format: cell-based; conditions: HEK-293 cells; for Gal4-RORγ Assay Max Response: maximum response
T1 construct: expressed in transfected cells
T1 sequence (P51449 269-508 limits assumed): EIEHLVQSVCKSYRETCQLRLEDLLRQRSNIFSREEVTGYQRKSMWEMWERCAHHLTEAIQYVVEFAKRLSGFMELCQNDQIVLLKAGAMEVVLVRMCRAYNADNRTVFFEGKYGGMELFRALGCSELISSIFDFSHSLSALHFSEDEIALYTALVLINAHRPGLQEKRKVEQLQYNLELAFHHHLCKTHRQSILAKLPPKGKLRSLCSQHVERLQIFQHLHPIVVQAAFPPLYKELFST
Procedure, shortened: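 Max Response was taken as the upper plateau of a 4-parameter logistic fit of luciferase signal, normalized to 100 for wells without ursolic acid or compound. Transiently Gal4-RORγ-LBD/Gal4-luc transfected HEK-293 cells carrying […] ursolic acid were incubated with test compounds (0.2% DMSO) overnight at 37 °C and read with One-Glo.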

[2] = target: T2, RORγ-LBD (Homo sapiens, UniProt P51449); experiment: RORγ-Ligand Binding Domain (LBD) TR-FRET Assay; format: biochemical; conditions: for TR-FRET Assay Max Response: maximum response;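 for TR-FRET Assay Max Response: 665/615 nm signal ratio set to 100 without ursolic acid or test compound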
T2 construct: made in house; host or cells: SF9 cells (baculovirus); used as diluted lysate
T2 sequence (P51449 269-508 limits assumed): T1 sequence (P51449 269-508 limits assumed)
Procedure, shortened: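 Compounds, diluted in DMSO and then in assay buffer (1% DMSO final), were combined with His-tagged RORγ-LBD lysate at roughly 3 nM final and a 200 nM biotinylated SRC1 LXXLL peptide. Ursolic acid was included at 2 μM final. Coactivator recruitment was detected by TR-FRET.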

[3] = luciferase reporter, in presence of ursolic acid
[4] = luciferase reporter, with ursolic acid

| EC50 [1, 4] [nM] | EC50 ([2]; RORγ-LBD TR-FRET) [nM] | Structure (SMILES) | other results |
| --- | --- | --- | --- |
|  |  | COc1cc(S(=O)(=O)N2c3cc(OCc4c(F)cccc4Cl)ccc3C=C(CO)[C@H]2C)ccc1F [Example 138, (R)-(7-((2-Chloro-6-fluorobenzyl)oxy)-1-((4-fluoro-3-methoxyphenyl)sulfonyl)-2-methyl-1,2-dihydroquinolin-3-yl)methanol] | EC50 [1, 3]: < 500 nM; Gal4-RORγ Assay Max Response [1, 3]: *** (a value in the range of greater than 150 to 200); EC50 ([2]; RORγ-LBD TR-FRET assay): < 500 nM; TR-FRET Assay Max Response ([2]; RORγ-LBD TR-FRET assay): ** (a value in the range of greater than 90 to 150) |
| 500 to 5000 | < 500 | COC(=O)CC[C@H]1CN(S(=O)(=O)c2cccc(C(F)(F)F)c2)c2cc(/C=C3\CCOc4ccccc43)ccc2O1 [Example 38A, methyl (S,E)-3-(6-(chroman-4-ylidenemethyl)-4-((3-(trifluoromethyl)phenyl)sulfonyl)-3,4-dihydro-2H-benzo[b][1,4]oxazin-2-yl)propanoate] |  |
| < 500 | < 500 | O=C(O)CC[C@H]1CN(S(=O)(=O)c2cn(CC(F)F)nc2OCCO)c2cc(/C=C/c3c(Cl)cccc3C(F)(F)F)ccc2O1 [Example 89EF, (S,E)-3-(6-(2-chloro-6-(trifluoromethyl)styryl)-4-((1-(2,2-difluoroethyl)-3-(2-hydroxyethoxy)-1H-pyrazol-4-yl)sulfonyl)-3,4-dihydro-2H-benzo[b][1,4]oxazin-2-yl)propanoic acid] |  |
|  |  | CC/C(C)=C\c1ccc2c(c1)N(S(=O)(=O)c1cccc(C(F)(F)F)c1)C[C@H](CCC(=O)O)O2 [Example 191B, (S,Z)-3-(6-(2-methylbut-1-en-1-yl)-4-((3-(trifluoromethyl)-phenyl)sulfonyl)-3,4-dihydro-2H-benzo[b][1,4]oxazin-2-yl)propanoic acid] | EC50 [1, 3]: 500 to 5000 nM; Gal4-RORγ Assay Max Response [1, 3]: *** (a value in the range of greater than 150 to 200); EC50 ([2]; RORγ-LBD TR-FRET assay): < 500 nM; TR-FRET Assay Max Response ([2]; RORγ-LBD TR-FRET assay): *** (a value in the range of greater than 150 to 200) |
| > 10000 | < 500 | COC(=O)CC[C@H]1CN(S(=O)(=O)c2cc(Cl)cnc2OCCO)c2cc(/C=C(\C)c3c(F)cccc3Cl)ccc2O1 [Example 69, Methyl (S,E)-3-(4-((5-chloro-2-(2-hydroxyethoxy)pyridin-3-yl)sulfonyl)-6-(2-(2-chloro-6-fluorophenyl)prop-1-en-1-yl)-3,4-dihydro-2H-benzo[b][1,4]oxazin-2-yl)propanoate] |  |
| > 10000 | > 10000 | CCOc1nn(CC)cc1S(=O)(=O)N1C[C@H](CCC(=O)O)Oc2ccc(/C=C/c3cccnc3)cc21 [Example 89I, (S,E)-3-(4-((3-ethoxy-1-ethyl-1H-pyrazol-4-yl)sulfonyl)-6-(2-(pyridin-3-yl)vinyl)-3,4-dihydro-2H-benzo[b][1,4]oxazin-2-yl)propanoic acid] |  |
| 500 to 5000 | < 500 | COC(=O)CC[C@H]1CN(S(=O)(=O)c2cc(C(F)(F)F)cnc2OC[C@H](C)O)c2cc(/C=C/c3c(F)cccc3Cl)ccc2O1 [Example 89FN, methyl 3-((S)-6-((E)-2-chloro-6-fluorostyryl)-4-((2-((S)-2-hydroxypropoxy)-5-(trifluoromethyl)pyridin-3-yl)sulfonyl)-3,4-dihydro-2H-benzo[b][1,4]oxazin-2-yl)propanoate] |  |
| < 500 | < 500 | COc1cc(S(=O)(=O)N2CCCc3ccc(OCc4c(Cl)cccc4Cl)cc32)ccc1F [Example 25P, 7-((2,6-dichlorobenzyl)oxy)-1-((4-fluoro-3-methoxyphenyl)sulfonyl)-1,2,3,4-tetrahydroquinoline] |  |
|  |  | CCn1cc(S(=O)(=O)N2C[C@H]([C@@H](C)NS(C)(=O)=O)Oc3ccc(/C=C(\C)c4c(F)cccc4Cl)cc32)c(Cl)n1 [Example 104, N—((R)-1-((R)-4-((3-Chloro-1-ethyl-1H-pyrazol-4-yl)sulfonyl)-6-((E)-2-(2-chloro-6-fluorophenyl)prop-1-en-1-yl)-3,4-dihydro-2H-benzo[b][1,4]oxazin-2-yl)ethyl)methanesulfonamide] | EC50 [1, 3]: > 10000 nM; EC50 ([2]; RORγ-LBD TR-FRET assay): < 500 nM; TR-FRET Assay Max Response ([2]; RORγ-LBD TR-FRET assay): *** (a value in the range of greater than 150 to 200) |
| > 10000 | < 500 | C/C(=C\c1cc2c(cc1C)O[C@@H](CCC(=O)O)CN2S(=O)(=O)c1cccc(C(F)(F)F)c1)c1c(F)cccc1Cl [Example 56, (S,E)-3-(6-(2-(2-Chloro-6-fluorophenyl)prop-1-en-1-yl)-7-methyl-4-((3-(trifluoromethyl)phenyl)sulfonyl)-3,4-dihydro-2H-benzo[b][1,4]oxazin-2-yl)propanoic acid] |  |
|  |  | C/C(=C\c1ccc2c(c1)N(S(=O)(=O)c1cccc(C(F)(F)F)c1)C[C@H](CC(=O)O)O2)c1c(F)cccc1Cl [Example 107, (S,E)-2-(6-(2-(2-Chloro-6-fluorophenyl)prop-1-en-1-yl)-4-((3-(trifluoromethyl)phenyl)sulfonyl)-3,4-dihydro-2H-benzo[b][1,4]oxazin-2-yl)acetic acid] | EC50 [1, 3]: 500 to 5000 nM; Gal4-RORγ Assay Max Response [1, 3]: ** (a value in the range of greater than 90 to 150); EC50 ([2]; RORγ-LBD TR-FRET assay): < 500 nM; TR-FRET Assay Max Response ([2]; RORγ-LBD TR-FRET assay): ** (a value in the range of greater than 90 to 150) |
|  |  | C/C(=C\c1ccc2c(c1)N(S(=O)(=O)c1cccc(C(F)(F)F)c1)C[C@H](NS(C)(=O)=O)C2)c1c(F)cccc1Cl [Example 116H, (R,E)-N-(7-(2-(2-chloro-6-fluorophenyl)prop-1-en-1-yl)-1-((3-(trifluoromethyl)phenyl)-sulfonyl)-1,2,3,4-tetra-hydroquinolin-3-yl)methanesulfonamide] | EC50 [1, 3]: < 500 nM; Gal4-RORγ Assay Max Response [1, 3]: ** (a value in the range of greater than 90 to 150); EC50 ([2]; RORγ-LBD TR-FRET assay): < 500 nM; TR-FRET Assay Max Response ([2]; RORγ-LBD TR-FRET assay): *** (a value in the range of greater than 150 to 200) |
|  |  | O=C(O)CCC[C@H]1CN(S(=O)(=O)c2cccc(C(F)(F)F)c2)c2cc(/C=C/c3c(F)cccc3Cl)ccc2O1 [Example 195D, (S,E)-4-(6-(2-chloro-6-fluorostyryl)-4-((3-(trifluoro-methyl)phenyl)sulfonyl)-3,4-dihydro-2H-benzo[b][1,4]oxazin-2-yl)butanoic acid] | EC50 ([1]; ursolic acid present, luciferase readout): < 500 nM; EC50 ([2]; with 2 μM ursolic acid (RORγ antagonist), highest test concentration 10 μM): < 500 nM |
| < 500 | < 500 | CCOc1nn(CC)cc1S(=O)(=O)N1C[C@H](CCC(=O)OC)Oc2ccc(/C=C/c3c(Cl)cccc3C(F)(F)F)cc21 [Example 89DP, methyl (S,E)-3-(6-(2-chloro-6-(trifluoromethyl)styryl)-4-((3-ethoxy-1-ethyl-1H-pyrazol-4-yl)sulfonyl)-3,4-dihydro-2H-benzo[b][1,4]oxazin-2-yl)propanoate] |  |
| 5000 to 10000 | < 500 | C/C(=C\c1c(F)cccc1Cl)c1ccc2c(c1)N(S(=O)(=O)c1cccc(C(F)(F)F)c1)C[C@H](CCC(=O)O)O2 [Example 32, (S,E)-3-(6-(1-(2-Chloro-6-fluorophenyl)prop-1-en-2-yl)-4-((3-(trifluoromethyl)phenyl)sulfonyl)-3,4-dihydro-2H-benzo[b][1,4]oxazin-2-yl)propanoic acid] |  |
| 500 to 5000 | < 500 | COC(=O)CC[C@H]1CN(S(=O)(=O)c2cccc(C(F)(F)F)c2)c2cc(/C(C)=C/c3c(F)cccc3Cl)ccc2O1 [Example 31, (S,E)-Methyl 3-(6-(1-(2-chloro-6-fluorophenyl)prop-1-en-2-yl)-4-((3-(trifluoromethyl)phenyl)sulfonyl)-3,4-dihydro-2H-benzo[b][1,4]oxazin-2-yl)propanoate] |  |
| < 500 | < 500 | C/C(=C\c1ccc2c(c1)N(S(=O)(=O)c1cn(C3CC3)nc1OCCO)C[C@H](CCC(=O)O)O2)c1c(F)cccc1Cl [Example 85, (S,E)-3-(6-(2-(2-Chloro-6-fluorophenyl)prop-1-en-1-yl)-4-((1-cyclopropyl-3-(2-hydroxyethoxy)-1H-pyrazol-4-yl)sulfonyl)-3,4-dihydro-2H-benzo[b][1,4]oxazin-2-yl)propanoic acid] |  |
| < 500 | < 500 | O=C(O)CC[C@H]1CN(S(=O)(=O)c2cccc(C(F)(F)F)c2)c2cc(/C=C/c3c(Cl)cccc3C(F)F)ccc2O1 [Example 89EN, (S,E)-3-(6-(2-chloro-6-(difluoromethyl)styryl)-4-((3-(trifluoromethyl)phenyl)sulfonyl)-3,4-dihydro-2H-benzo[b][1,4]oxazin-2-yl)propanoic acid] |  |
| 5000 to 10000 | < 500 | COC(=O)CC[C@H]1CN(S(=O)(=O)c2cccc(OC(F)F)c2)c2cc(/C=C(\C)c3c(F)cccc3Cl)c(Cl)cc2O1 [Example 47, (S,E)-Methyl 3-(6-(2-(2-chloro-6-fluorophenyl)prop-1-en-1-yl)-4-((3-(difluoromethoxy)phenyl)sulfonyl)-7-chloro-3,4-dihydro-2H-benzo[b][1,4]oxazin-2-yl)propanoate] |  |
| 500 to 5000 | < 500 | O=C(O)CC[C@H]1CN(S(=O)(=O)c2cc(C(F)(F)F)cnc2OCCO)c2cc(/C=C3\CC4CCC3C4)ccc2O1 (stereo partly drawn) [Example 95T, 3-((2S)-6-((E)-bicyclo[2.2.1]heptan-2-ylidenemethyl)-4-((2-(2-hydroxyethoxy)-5-(trifluoromethyl)pyridin-3-yl)sulfonyl)-3,4-dihydro-2H-benzo[b][1,4]oxazin-2-yl)propanoic acid] |  |

Reference: patent US9896441B2 (Lycera Corporation, priority 2014, dated 2018)
